Data set [1] in a line: Stability of acyl-CoAs in TCA and mutase assay buffer (HPLC). Format: physicochemical. Conditions: mutase assay conditions, 30° C. As for the experimental part: To test whether acyl-CoAs degrade in TCA, the following tests were conducted. The CoA mix consisted of 1.6 mM each of malonyl-, methylmalonyl-, succinyl-, acetyl-, and propionyl-CoA, plus 0.5 mM CoA. An aliquot (10 μL) of this mix was added to 100 μL 10% TCA, 50 μL were immediately injected to the HPLC for CoA analysis, and the remainder was promptly frozen on dry ice. The frozen portion was then thawed and loaded immediately to the HPLC. Again, 10 μL of the CoA mix were added to 100 μL 10% TCA, 50 μL were left on ice for 15 minutes and then injected to the HPLC, the remainder was left at 4° C. overnight and injected to the HPLC the next morning. The area under each CoA peak was noted. This same procedure was followed but using a mixture of TCA and buffer A from the mutase assay.
The CoA analysis described here is carried out on cells which are lysed in 10% TCA. […] Thus, the CoAs are stable in TCA and in the mutase assay buffer after the cells are lysed or after the assays are completed, and prior to HPLC analysis.
Although the CoAs are stable in TCA and buffer at 4° C., they degraded at 30° C., the temperature at which the mutase assay was performed. In five minutes under the assay conditions, about 4% of the methylmalonyl-CoA hydrolyzed to CoA. […] Thus, the mutase assay is suboptimal for extremely quantitative results.

Data set [2] can be described thus: Spontaneous chemical epimerization between (R)- and (S)-mm-CoA. Format: physicochemical. Conditions: in 15 minutes.
Data set [3] is described as follows: Epimerase assay coupled to transcarboxylase and malate dehydrogenase, crude E. coli extracts. Format: biochemical. Conditions: 30° C. The protocol: Cells of strain BL2] (DE3) containing pET-epsherm, pET-epcoel, pET-epsub, or a control pET vector were grown overnight at 37° C. in 2 mL LB containing 100 μg/ml carbenicillin. The starter culture (250 μL) was used to inoculate 25 mL LB containing 100 μg/ml carbenicillin. The cultures were grown at 37° C. to an OD of approximately 0.4, then induced with IPTG to 1 mM final concentration and grown for an additional 3 hours at 30° C. The cells were collected by centrifugation at 4000 rpm for 10 minutes, and the pellets were stored at −80° C. prior to assay. […]
Epimerase activity was measured in crude extracts of E. coli harboring either pET-epsherm, pET-epcoel, pET-epsub, or a control pET vector. The epimerase assay couples transcarboxylase, which converts (S)-methylmalonyl-CoA into propionyl-CoA, to malate dehydrogenase, which converts NADH into NAD^+, producing a decrease in absorbance at 340 nm. […] When an extract containing epimerase is added to the assay, the (R)-isomer is converted to (S)—, resulting in a further decrease in absorbance. […]
The pellet from approximately 20 mL of culture was thawed and resuspended in 2 mL 1X assay buffer containing a protease inhibitor cocktail tablet. […] The reaction was initiated with (2R,2S)-methylmalonyl-CoA and the decrease in absorbance at 340 nm was monitored, reflecting the disappearance of the 2S isomer. […]

For the molecule `CC(C(=O)O)C(=O)SCCNC(=O)CCNC(=O)[C@H](O)C(C)(C)COP(=O)(O)OP(=O)(O)OC[C@H]1O[C@@H](n2cnc3c(N)ncnc32)[C@H](O)[C@@H]1OP(=O)(O)O` (stereo partly shown) [methylmalonyl-CoA], in data set [1] (five minutes), the “hydrolyzed to CoA” value is reported as “about 4%”. Further, in data set [2], the “spontaneous chemical epimerization between (R)- and (S)-mm-CoA” value is “approximately 3%”. As for `CC(C)(COP(=O)(O)OP(=O)(O)OC[C@H]1O[C@@H](n2cnc3c(N)ncnc32)[C@H](O)[C@@H]1OP(=O)(O)O)[C@@H](O)C(=O)NCCC(=O)NCCSC(=O)CCC(=O)O` [succinyl-CoA], the “rate of hydrolysis relative to methylmalonyl-CoA” value in data set [1] was “comparable rate”.

B1: P. shermanii epimerase: methylmalonyl-CoA epimerase from Propionibacterium shermanii expressed in E. coli, SEQ ID NO: 2 (protein)
chain: MSNEDLFICIDHVAYACPDADEASKYYQETFGWHELHREENPEQGVVEIMMAPAAKLTEHMTQVQVMAPLNDESTVAKWLAKHNGRAGLHHMAWRVDDIDAVSATLRERGVQLLYDEPKLGTGGNRINFMHPKSGKGVLIELTQYPKN
modifications: Deduced amino acid sequence of the epimerase gene sequence
B1: the specific activity entry in data set [3] is reported as “approximately 30 units/mg”.

Values taken from US7291486B2, “Genetically modified cells and methods for converting (R)-methylmalonyl CoA to (S)-methylmalonyl CoA” (KOSAN Biosciences, Inc., priority 1999, dated 2007).
